Test results published in paper PMC3070160 (Biochemistry, 2010).

Tests used:
Type in all cases: binding
[1] = molecular target: T1, yCBS (yeast cystathionine β-synthase) (Saccharomyces cerevisiae, UniProt P32582); assay: double-mixing stopped-flow, […] nm decay, koff/kon
T1 sequence (P32582 1-507): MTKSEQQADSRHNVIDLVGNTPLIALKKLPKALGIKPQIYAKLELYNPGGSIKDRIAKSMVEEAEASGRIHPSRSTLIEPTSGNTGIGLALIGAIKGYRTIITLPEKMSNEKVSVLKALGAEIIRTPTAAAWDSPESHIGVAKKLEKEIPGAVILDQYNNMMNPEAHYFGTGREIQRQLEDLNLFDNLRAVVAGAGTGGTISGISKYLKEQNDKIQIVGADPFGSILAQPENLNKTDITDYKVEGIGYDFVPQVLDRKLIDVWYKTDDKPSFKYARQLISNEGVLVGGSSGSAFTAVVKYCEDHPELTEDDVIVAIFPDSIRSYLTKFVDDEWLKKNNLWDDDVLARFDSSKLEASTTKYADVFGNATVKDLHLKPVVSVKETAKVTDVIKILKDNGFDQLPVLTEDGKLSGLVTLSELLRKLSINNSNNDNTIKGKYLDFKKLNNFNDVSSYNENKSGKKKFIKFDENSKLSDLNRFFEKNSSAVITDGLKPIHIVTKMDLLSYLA

[2] = molecular target: T1, yCBS (yeast cystathionine β-synthase); assay: stopped-flow, aminoacrylate formation at […] nm, hyperbolic fit of kobs
[3] = molecular target: T1, yCBS (yeast cystathionine β-synthase); assay: UV-visible spectrum of enzyme as isolated; settings: internal aldimine with Lys53; covalent

Work on N[C@@H](CCS)C(=O)O [L-homocysteine] yielded a Kd [1] of 0.37 ± 0.02 mM.

Compound N[C@@H](CO)C(=O)O [L-serine] has a Kd [2] of 14.4 ± 1.7 mM.

In the case of Cc1ncc(COP(=O)(O)O)c(C=O)c1O [PLP], the “UV-visible spectrum of enzyme as isolated” value [3] is reported as “protonated Schiff base (internal aldimine) between Lys53 in the active site and the PLP”.
